The structures appear in SMILES notation.

Data set [1] concerns the target T1, HER2 (Homo sapiens, UniProt P04626).
T1 construct: amount of phosphorylation of HER2 tyrosine of the cells; endogenous in cells; host or cells: MCF-7 human breast cancer cell line
As to the kind of experiment: Inhibition of phosphorylation of receptor tyrosine (HER2) in human breast cancer cells MCF-7. Conditions: MCF-7 cells, test compound 2 hours, then heregulin 0.8 μg/mL for 5 minutes. It is filed as cell-based. The method, then: Inhibition of Phosphorylation of Receptor Tyrosine in Human Breast Cancer Cells
In each well of a 24-well plate, 500 μl of the cell suspension ([…]) of human breast cancer cell line MCF-7 was seeded and incubated at 37° C. in a 5% carbon dioxide gas incubator. On the next day, 250 μl of a 4-fold serial dilution of a solution of a test compound was added to each well and, 2 hours later, 250 μl of a heregulin solution, which was adjusted so as to be the final concentration of 0.8 μg/mL, was added thereto. After 5 minutes, an extracting solution was added thereto to terminate the reaction as well as to extract a protein. The protein was fractionated by protein electrophoresis and the protein in the electrophoretic gel was transferred to a nylon filter. The filter was reacted with a phosphorylated tyrosine-specific antibody. The reaction product was fluorescence-labeled and was exposed to a photo-film. The intensity of the exposure on the photo-film was quantitated by an image-analyzing apparatus.

For data set [2], the system named is human breast cancer cell line BT-474. As to the kind of experiment: In vitro inhibition of growth of breast cancer cell BT-474. It is filed as cell-based. The conditions noted are these: 120 h, BT-474 cells, heregulin, cultured for 5 days, SRB staining. The method, then: In vitro Inhibition of Growth of Breast Cancer Cell BT-474
In each well of a 96-well microtiter plate, 100 μl (containing 1,000 cells) of a cell suspension of human breast cancer cell line BT-474 was seeded and incubated at 37° C. in a 5% carbon dioxide gas incubator. On the next day, 100 μl of the 2-fold serial dilution of a solution of each test compound prepared by using 250 μl of a heregulin solution, which was adjusted so as to be the final concentration of 0.8 μg/mL, was added to each well and cultured for 5 days. The solution containing the test compound was removed and the cells were washed and fixed with a 50% trichloroacetic acid solution. To the cells was added a 0.4% (W/V) solution of pigment SRB (dissolved in 1% acetic acid) to fix as well as stain the cell protein (Skehan P. et al., Journal of the National Cancer Institute Vol. 82, pp. 1107-1112, 1990). The pigment solution was removed and the remainder was washed with a 1% acetic acid solution. Then, 100 μl of an extracting solution (10 mM Tris buffer) was added thereto to extract the pigment. The optical density of the extract at the wavelength of 550 nm was measured to determine the amount of the cells in terms of the amount of the protein. The proportion of the amount of remaining protein of each treated group was determined by taking the amount of protein of the control to which no solution of a test compound was added as 100% to calculate the value of the concentration of the compound required for inhibiting the remaining cells by 50% of that of the control (IC50)

For data set [3], the system named is Human breast cancer cell line BT-474. As to the kind of experiment: In vivo breast cancer inhibiting effect (BT-474 implanted in nude mice). The conditions noted are these: nude mice with BT-474 tumors, orally twice daily 30 mg/kg body weight for 10 days. The protocol: In Vivo Breast Cancer Inhibiting Effect
Human breast cancer cell line BT-474 (5,000,000 cells) were suspended in a gel-matrix solution. The suspension was subcutaneously implanted in the breast of 6-week-old female Balb/C strain nude mice (Friedman R. et al., Proceedings of the National Academy of Sciences of the U.S.A. Vol. 87, pp. 6698-6702, 1990). At the time of the implantation and seven days after the implantation, an estradiol dipropionate solution (5 mg/mL) was intramuscularly administered to the hind leg for the purpose of enhancing a take ratio of tumors. Fourteen days after the implantation, the diameters of tumors were determined. For the experiment were used 5 mice per group with similar tumor size. Each of compounds (4, 6, 14, 17, 19, 20, 23, 24 and 26) of the present invention was suspended in a 5% gum arabic solution (physiological saline) and administered orally twice daily in dose of 30 mg/kg body weight for 10 days. On the day when the administration was terminated, the diameters of tumors were measured. Tumor volume was calculated by the following equation.
Volume of tumor=longest diameter×shortest diameter×shortest diameter×½
The growth rate of tumors was calculated as the proportion of the value obtained by subtracting the initial volume from the final volume in the group to which the drug was administered, to the value obtained by subtracting the initial volume from the final volume in the control group to which a gum arabic solution was administered.

Data set [4] is described as follows: Measurement of size of crystalline particulate (laser diffraction/scattering). It is filed as physicochemical. The conditions noted are these: distilled water as dispersion medium, SALD-2000A. The method, then: The average particle size can be measured by using a per se known method and a measuring equipment. The term “average particle size” refers to a volume-average particle size as measured, for example, by a laser diffraction/scattering particle size distribution measuring apparatus (for example, SALD-2000A manufactured by Shimadzu Corporation). The particle size is usually measured by uniformly dispersing a HER2 inhibitor suspension at a concentration of about 1 to 100 μg/ml at room temperature while being subjected to ultra-sonication for a short period of time such as within 1 minute, or while stirring using a vortex mixer. The aqueous solvent used in the measurement is usually water, but buffer solutions having various pH's, a pseudo-body fluid and 0.5% methyl cellulose solution may be used. […]
The size of fine particles in the suspension of the drug of crystalline particulate obtained in Example 1 was measured. […] Further, the size of particles obtained by comminuting bulk of the compound of Reference Example B4, which was used in Example 1, with a jet mill was measured in the same manner.
The size of fine particles in the suspension of the drug of crystalline particulate obtained in Example 4a was measured. […] Further, crystalline particulate obtained in Example 8a were dispersed again in distilled water and the size of fine particles of the drug was measured in the same manner.

T1 sequence (P04626 23-1255): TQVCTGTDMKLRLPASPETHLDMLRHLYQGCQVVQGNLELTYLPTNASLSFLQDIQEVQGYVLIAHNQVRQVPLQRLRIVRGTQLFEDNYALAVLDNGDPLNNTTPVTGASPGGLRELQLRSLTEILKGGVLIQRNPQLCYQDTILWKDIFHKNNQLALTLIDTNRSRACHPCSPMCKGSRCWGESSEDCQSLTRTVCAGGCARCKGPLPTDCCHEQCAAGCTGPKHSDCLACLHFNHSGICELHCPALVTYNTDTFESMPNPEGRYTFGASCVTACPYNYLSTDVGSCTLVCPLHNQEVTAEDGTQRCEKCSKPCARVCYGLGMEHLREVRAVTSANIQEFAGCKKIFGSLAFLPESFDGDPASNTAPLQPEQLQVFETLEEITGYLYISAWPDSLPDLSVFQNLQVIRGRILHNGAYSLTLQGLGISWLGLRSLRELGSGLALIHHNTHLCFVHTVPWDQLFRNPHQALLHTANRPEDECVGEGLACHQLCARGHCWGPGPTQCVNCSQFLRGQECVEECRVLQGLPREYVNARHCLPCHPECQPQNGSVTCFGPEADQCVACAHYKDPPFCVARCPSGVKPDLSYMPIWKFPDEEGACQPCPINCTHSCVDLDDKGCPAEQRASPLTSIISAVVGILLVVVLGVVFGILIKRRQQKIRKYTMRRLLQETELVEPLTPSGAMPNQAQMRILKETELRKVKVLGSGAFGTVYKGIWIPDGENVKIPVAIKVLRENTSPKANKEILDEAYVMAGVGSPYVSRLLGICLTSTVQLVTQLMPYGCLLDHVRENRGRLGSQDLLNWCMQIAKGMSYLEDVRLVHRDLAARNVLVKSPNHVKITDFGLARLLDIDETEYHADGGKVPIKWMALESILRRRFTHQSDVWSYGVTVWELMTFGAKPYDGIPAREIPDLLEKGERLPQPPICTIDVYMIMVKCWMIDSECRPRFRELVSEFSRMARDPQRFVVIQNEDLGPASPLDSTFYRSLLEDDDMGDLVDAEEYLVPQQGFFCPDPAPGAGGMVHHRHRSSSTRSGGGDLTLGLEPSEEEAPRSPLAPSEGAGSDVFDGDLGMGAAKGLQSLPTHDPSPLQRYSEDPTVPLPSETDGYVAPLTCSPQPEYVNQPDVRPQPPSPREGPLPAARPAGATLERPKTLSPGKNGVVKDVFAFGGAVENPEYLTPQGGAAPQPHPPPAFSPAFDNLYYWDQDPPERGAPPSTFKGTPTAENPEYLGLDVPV

Regarding `Fc1ccc(/C=C/c2nc(COc3cccc(CCCn4ccnn4)c3)co2)cc1` [B3, 1-{3-[3-({2-[(E)-2-(4-Fluorophenyl)ethenyl]-1,3-oxazol-4-yl}methoxy)phenyl]propyl}-1H-1,2,3-triazole], the melting point fell in the range of 105 to 106 °C. For the same molecule, in data set [1], the IC50 was determined as 0.18 µM. This molecule also yielded an IC50 in data set [2] of under 0.05 µM.

Take `FC(F)(F)c1ccc(/C=C/c2nc(COc3ccc(CCCn4ccnn4)cc3)co2)cc1` [B5, 1-(3-{4-[(2-{(E)-2-[4-(Trifluoromethyl)phenyl]ethenyl}-1,3-oxazol-4-yl)methoxy]phenyl}propyl)-1H-1,2,3-triazole]: the melting point fell in the range of 157 to 158 °C. The molecule further came in with an IC50 in data set [2] of under 0.05 µM.

`Cc1cccc(/C=C/c2nc(COc3ccc(CCCCn4ccnc4CCO)cc3)co2)c1` [B11, 2-[1-[4-[4-[[2-[(E)-2-(3-Methylphenyl)ethenyl]-1,3-oxazol-4-yl]methoxy]phenyl]butyl]-1H-imidazol-2-yl]-1-ethanol] showed a melting point of 109 to 111 °C. The molecule further gave an IC50 in data set [1] of 1.1 µM. The 50% inhibitory concentration (IC50) in data set [2] was under 0.05 µM.

The molecule `OCCc1nccn1CCCc1ccc(OCc2coc(/C=C/c3ccc(F)cc3F)n2)cc1` [B20, 2-[1-[3-[4-[[2-[(E)-2-(2,4-Difluorophenyl)ethenyl]-1,3-oxazol-4-yl]methoxy]phenyl]propyl]-1H-imidazol-2-yl]-1-ethanol] registered a melting point of 94 to 96 °C. Also, in data set [1], the IC50 was found to be 1.5 µM. Besides, the IC50 in data set [2] was under 0.05 µM.

In the case of `Cc1cccc(/C=C/c2nc(COc3ccc(CCCCn4ccnc4CC(O)CO)cc3)co2)c1` (centres unmarked) [B22, 3-(1-{4-[4-({2-[(E)-2-(3-Methylphenyl)ethenyl]-1,3-oxazol-4-yl}methoxy)phenyl]butyl}-1H-imidazol-2-yl)-1,2-propanediol], the melting point lay in the range of 102 to 104 °C. Further, the IC50 in data set [1] turned out to be 1.9 µM. Also, the half-maximal inhibitory concentration (IC50) in data set [2] was under 0.05 µM.

Take `OCC(O)Cc1nccn1CCCCc1ccc(OCc2coc(/C=C/c3ccc(F)cc3)n2)cc1` (centres unmarked) [B23, 3-(1-{4-[4-({2-[(E)-2-(4-Fluorophenyl)ethenyl]-1,3-oxazol-4-yl}methoxy)phenyl]butyl}-1H-imidazol-2-yl)-1,2-propanediol]: the melting point lay in the range of 114 to 116 °C. The “Inhibition ratio (%)” value in data set [3] was found to be 27%.

In the case of `OCC(O)Cc1nccn1CCCCc1ccc(OCc2coc(/C=C/c3ccc(C(F)(F)F)cc3)n2)cc1` (centres unmarked) [B24, 3-[1-(4-{4-[(2-{(E)-2-[4-(Trifluoromethyl)phenyl]ethenyl}-1,3-oxazol-4-yl)methoxy]phenyl}butyl)-1H-imidazol-2-yl]-1,2-propanediol], the melting point lay within 142 to 143 °C. In addition, the “Inhibition ratio (%)” value in data set [3] turned out to be 28%.

`Fc1ccc(/C=C/c2nc(COc3ccc(CCCCn4ccnn4)cc3)co2)cc1` [Reference Example B2, 1-{4-[4-({2-[(E)-2-(4-Fluorophenyl)ethenyl]-1,3-oxazol-4-yl}methoxy)phenyl]butyl}-1H-1,2,3-triazole] gave a melting point of 124 to 125 °C. The molecule also had an IC50 in data set [1] of 1.9 µM. The IC50 in data set [2] was under 0.05 µM.

Consider `FC(F)(F)c1ccc(/C=C/c2nc(COc3ccc(CCCCn4ccnn4)cc3)co2)cc1` [Reference Example B4, 1-(4-{4-[(2-{(E)-2-[4-(Trifluoromethyl)phenyl]ethenyl}-1,3-oxazol-4-yl)methoxy]phenyl}butyl)-1H-1,2,3-triazole], for which the “Inhibition ratio (%)” value in data set [3] is on record as 5%. Further, the values for the IC50 in data set [1] and in data set [2] were 0.1 µM and under 0.05 µM, respectively. Further, the entries for the “Average particle size (μm)” value in data set [4] and in data set [4] (listed as Reference Example 4B) were at most 4 μm and 3.85 μm, respectively.

On to `FC(F)(F)c1ccc(/C=C/c2nc(COc3cccc(CCCn4ccnn4)c3)co2)cc1` [Reference Example B6, 1-(3-{3-[(2-{(E)-2-[4-(Trifluoromethyl)phenyl]ethenyl}-1,3-oxazol-4-yl)methoxy]phenyl}propyl)-1H-1,2,3-triazole], for which the melting point lay in the range of 115 to 116 °C. Also, in data set [3], the “Inhibition ratio (%)” value is listed as 28%. Further, in data set [1], the half-maximal inhibitory concentration (IC50) turned out to be 1.2 µM. Also, in data set [2], the half-maximal inhibitory concentration (IC50) was under 0.05 µM.

`OCCc1nccn1CCCCc1ccc(OCc2coc(/C=C/c3ccc(F)cc3F)n2)cc1` [Reference Example B19, 2-[1-[4-[4-[[2-[(E)-2-(2,4-Difluorophenyl)ethenyl]-1,3-oxazol-4-yl]methoxy]phenyl]butyl]-1H-imidazol-2-yl]-1-ethanol] registered a melting point of 93 to 95 °C. Also, the IC50 in data set [2] was found to be 0.017 µM.

In the case of `OCC(O)Cc1nccn1CCCCc1ccc(OCc2coc(/C=C/c3ccc(F)cc3F)n2)cc1` (centres unmarked) [Reference Example B26, 3-(1-{4-[4-({2-[(E)-2-(2,4-Difluorophenyl)ethenyl]-1,3-oxazol-4-yl}methoxy)phenyl]butyl}-1H-imidazol-2-yl)-1,2-propanediol], the “Inhibition ratio (%)” value in data set [3] came out at 15%. Further, the IC50 in data set [1] is 0.92 µM; in data set [2] it was under 0.05 µM.
